Reference: ChEMBL document CHEMBL5046322, “Discovery of SHR2415, a Novel Pyrrole-Fused Urea Scaffold ERK1/2 Inhibitor” (ACS Med Chem Lett, 2022)

Legend:
[1] = system: COLO 205; assay: Antiproliferative activity against human COLO 205 cells assessed as reduction in cell viability for 72 hrs by cell titre glo luminescence assay; assay type: functional, cell-based
[2] = target: Mitogen-activated protein kinase 1 (Homo sapiens, UniProt P28482); assay: Inhibition of ERK2 (unknown origin) measured after 2 hr by ADP-glo assay
Sequence of Mitogen-activated protein kinase 1 (P28482 whole entry): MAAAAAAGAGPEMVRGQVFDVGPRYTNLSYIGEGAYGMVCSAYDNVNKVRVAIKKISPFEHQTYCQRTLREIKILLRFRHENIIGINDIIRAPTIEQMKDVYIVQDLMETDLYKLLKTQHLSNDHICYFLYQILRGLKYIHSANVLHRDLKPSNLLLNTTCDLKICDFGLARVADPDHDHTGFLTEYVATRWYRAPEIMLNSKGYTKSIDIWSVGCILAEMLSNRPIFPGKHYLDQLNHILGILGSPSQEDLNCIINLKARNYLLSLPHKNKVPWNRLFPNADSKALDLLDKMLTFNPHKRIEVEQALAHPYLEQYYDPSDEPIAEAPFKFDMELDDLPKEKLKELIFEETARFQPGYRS

[3] = Oral bioavailability in Sprague-Dawley rat at 2 mg/kg; assay type: ADME, organism-based; conditions: in vivo
[4] = Cmax in Beagle dog plasma at 0.5 mg/kg, iv and measured after 24 hrs by LC/MS/MS analysis; assay type: ADME, organism-based, Canis lupus familiaris; set-up: route intravenous, time 24 hrs, dose 0.5 mg/kg
[5] = Cmax in tumor of BALB/c mouse xenografted with human COLO 205 cells at 25 mg/kg, po for 14 days; assay type: ADME, organism-based, Neoplasm; set-up: route oral, dose 25 mg/kg, time 14 day
[6] = AUC (0 to t) in Beagle dog at 2 mg/kg, po; assay type: ADME, organism-based, Canis lupus familiaris; set-up: dose 2 mg/kg; conditions: in vivo
[7] = Clearance in ICR mouse plasma at 1 mg/kg, iv and measured after 24 hrs by LC/MS/MS analysis mg/kg, iv; assay type: ADME, organism-based
[8] = Cmax in plasma of BALB/c mouse xenografted with human COLO 205 cells at 25 mg/kg, po for 14 days; assay type: ADME, organism-based; set-up: route oral, dose 25 mg/kg, time 14 day
[9] = Oral bioavailability in Beagle dog at 2 mg/kg; assay type: ADME, organism-based, Canis lupus familiaris; conditions: in vivo
[10] = Cmax in Sprague-Dawley rat plasma at 1 mg/kg, iv and measured after 24 hrs by LC/MS/MS analysis; assay type: ADME, organism-based; set-up: route intravenous, dose 1 mg/kg, time 24 hrs
[11] = in vivo; conditions: BALB/c, mouse, tumour, po, 25 mg/kg
Description: Ratio of AUC in tumor to plasma of BALB/c mouse xenografted with human COLO 205 cells at 25 mg/kg, po for 14 days

[12] = Clearance in Beagle dog plasma at 0.5 mg/kg, iv and measured after 24 hrs by LC/MS/MS analysis; assay type: ADME, organism-based, Canis lupus familiaris
[13] = Half life in Sprague-Dawley rat at 2 mg/kg, po; conditions: in vivo
[14] = Half life in Beagle dog at 2 mg/kg, po; conditions: in vivo
[15] = AUC (0 to t) in ICR mouse at 2 mg/kg, po; assay type: ADME, organism-based; set-up: dose 2 mg/kg; conditions: in vivo
[16] = Plasma protein binding in human; assay type: ADME, cell-free; conditions: read-out: PPB (converted)
[17] = target: Cyclin-dependent kinase 2 (Homo sapiens, UniProt P24941); assay: Inhibition of CDK2 (unknown origin)
[18] = target: Glycogen synthase kinase-3 beta (Homo sapiens, UniProt P49841); assay: Inhibition of GSK3beta (unknown origin)
Sequence of Glycogen synthase kinase-3 beta (P49841 whole entry): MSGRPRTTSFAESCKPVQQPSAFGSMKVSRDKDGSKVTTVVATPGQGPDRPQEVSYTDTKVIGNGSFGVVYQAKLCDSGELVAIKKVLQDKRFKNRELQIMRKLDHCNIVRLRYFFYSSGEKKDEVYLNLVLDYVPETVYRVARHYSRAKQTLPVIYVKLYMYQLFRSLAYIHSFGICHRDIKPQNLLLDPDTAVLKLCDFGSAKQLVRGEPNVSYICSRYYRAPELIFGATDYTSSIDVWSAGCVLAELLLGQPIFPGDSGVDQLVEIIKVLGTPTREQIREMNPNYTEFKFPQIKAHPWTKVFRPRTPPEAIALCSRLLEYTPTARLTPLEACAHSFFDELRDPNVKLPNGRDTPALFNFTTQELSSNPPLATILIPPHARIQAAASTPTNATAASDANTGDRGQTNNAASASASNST

[19] = AUC (0 to t) in Sprague-Dawley rat at 2 mg/kg, po; assay type: ADME, organism-based; set-up: dose 2 mg/kg; conditions: in vivo
[20] = Clearance in Sprague-Dawley rat plasma at 1 mg/kg, iv and measured after 24 hrs by LC/MS/MS analysis; assay type: ADME, organism-based
[21] = system: COLO 205; assay: Antitumor activity against human COLO 205 cells xenografted in BALB/c nude mouse assessed as TGI at 25 mg/kg, po measured after 14 days; assay type: functional; conditions: COLO 205, po, 336 h, time 14 day, read-out: TGI
[22] = AUC in plasma of BALB/c mouse xenografted with human COLO 205 cells at 25 mg/kg, po for 14 days; assay type: ADME, organism-based; set-up: time 14 day, dose 25 mg/kg
[23] = Oral bioavailability in ICR mouse at 2 mg/kg; assay type: ADME, organism-based; conditions: in vivo
[24] = AUC in tumor of BALB/c mouse xenografted with human COLO 205 cells at 25 mg/kg, po for 14 days; assay type: ADME, organism-based, Neoplasm; set-up: time 14 day, dose 25 mg/kg
[25] = AUC in tumor of BALB/c mouse xenografted with human COLO 205 cells at 50 mg/kg, po for 14 days; assay type: ADME, organism-based, Neoplasm; set-up: dose 50 mg/kg, time 14 day
[26] = Cmax in plasma of BALB/c mouse xenografted with human COLO 205 cells at 50 mg/kg, po for 14 days; assay type: ADME, organism-based; set-up: route oral, dose 50 mg/kg, time 14 day
[27] = AUC in plasma of BALB/c mouse xenografted with human COLO 205 cells at 50 mg/kg, po for 14 days; assay type: ADME, organism-based; set-up: time 14 day, dose 50 mg/kg
[28] = Ratio of AUC in tumor to plasma of BALB/c mouse xenografted with human COLO 205 cells at 50 mg/kg, po for 14 days; assay type: ADME, organism-based; conditions: tumor and plasma, time 14 day, read-out: Ratio AUC
[29] = Cmax in tumor of BALB/c mouse xenografted with human COLO 205 cells at 50 mg/kg, po for 14 days; assay type: ADME, organism-based, Neoplasm; set-up: route oral, dose 50 mg/kg, time 14 day
[30] = system: COLO 205; assay: Antitumor activity against human COLO 205 cells xenografted in BALB/c nude mouse assessed as TGI at 50 mg/kg, po measured after 14 days; assay type: functional; conditions: COLO 205, po, 336 h, time 14 day, read-out: TGI
[31] = Half life in ICR mouse at 2 mg/kg, po; conditions: in vivo
[32] = Cmax in ICR mouse plasma at 1 mg/kg, iv and measured after 24 hrs by LC/MS/MS analysis; assay type: ADME, organism-based; set-up: route intravenous, dose 1 mg/kg, time 24 hrs
[33] = target: Cytochrome P450 2C9 (Homo sapiens, UniProt P11712); assay: Inhibition of CYP2C9 in human liver microsomes
Sequence of Cytochrome P450 2C9 (P11712 whole entry): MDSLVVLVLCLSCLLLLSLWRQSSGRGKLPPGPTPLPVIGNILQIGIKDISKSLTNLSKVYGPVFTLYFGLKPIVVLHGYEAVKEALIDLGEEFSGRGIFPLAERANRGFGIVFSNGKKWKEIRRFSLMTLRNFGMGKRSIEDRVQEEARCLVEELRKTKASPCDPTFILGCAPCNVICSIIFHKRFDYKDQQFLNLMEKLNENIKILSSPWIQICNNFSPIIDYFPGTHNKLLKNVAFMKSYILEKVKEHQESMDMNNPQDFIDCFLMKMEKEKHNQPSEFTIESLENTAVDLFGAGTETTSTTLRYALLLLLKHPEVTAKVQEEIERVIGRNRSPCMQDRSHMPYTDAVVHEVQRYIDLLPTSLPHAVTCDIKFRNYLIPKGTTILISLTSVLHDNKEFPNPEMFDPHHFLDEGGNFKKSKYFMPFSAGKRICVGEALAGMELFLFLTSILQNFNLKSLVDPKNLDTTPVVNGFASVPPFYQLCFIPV

[34] = target: Cytochrome P450 2C19 (Homo sapiens, UniProt P33261); assay: Inhibition of CYP2C19 in human liver microsomes
Sequence of Cytochrome P450 2C19 (P33261 whole entry): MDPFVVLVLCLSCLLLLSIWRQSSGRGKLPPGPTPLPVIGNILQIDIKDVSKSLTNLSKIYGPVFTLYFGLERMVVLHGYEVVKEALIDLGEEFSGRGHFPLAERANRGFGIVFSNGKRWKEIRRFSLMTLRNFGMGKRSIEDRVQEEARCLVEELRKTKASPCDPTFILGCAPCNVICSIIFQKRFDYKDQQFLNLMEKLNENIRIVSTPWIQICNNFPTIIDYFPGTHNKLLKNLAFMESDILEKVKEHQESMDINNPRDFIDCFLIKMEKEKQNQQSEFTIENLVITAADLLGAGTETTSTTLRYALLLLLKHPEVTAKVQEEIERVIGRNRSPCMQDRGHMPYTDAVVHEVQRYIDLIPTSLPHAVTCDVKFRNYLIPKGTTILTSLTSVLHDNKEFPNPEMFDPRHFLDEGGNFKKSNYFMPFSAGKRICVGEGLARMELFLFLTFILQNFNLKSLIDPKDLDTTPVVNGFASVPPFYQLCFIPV

[35] = target: Cytochrome P450 2D6 (Homo sapiens, UniProt P10635); assay: Inhibition of CYP2D6 in human liver microsomes
Sequence of Cytochrome P450 2D6 (P10635 whole entry): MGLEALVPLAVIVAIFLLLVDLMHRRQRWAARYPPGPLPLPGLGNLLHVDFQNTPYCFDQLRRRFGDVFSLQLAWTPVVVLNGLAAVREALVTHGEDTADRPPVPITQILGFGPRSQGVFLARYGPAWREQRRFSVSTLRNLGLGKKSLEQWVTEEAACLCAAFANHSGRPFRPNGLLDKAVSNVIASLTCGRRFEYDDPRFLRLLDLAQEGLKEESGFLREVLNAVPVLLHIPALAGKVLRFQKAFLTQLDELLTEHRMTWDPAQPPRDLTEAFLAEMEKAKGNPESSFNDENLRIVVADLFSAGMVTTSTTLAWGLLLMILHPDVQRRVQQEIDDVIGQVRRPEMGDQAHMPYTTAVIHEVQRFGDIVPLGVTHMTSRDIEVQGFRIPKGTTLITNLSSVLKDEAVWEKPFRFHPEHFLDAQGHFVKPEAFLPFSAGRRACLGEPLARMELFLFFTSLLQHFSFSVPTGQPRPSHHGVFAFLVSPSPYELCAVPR

[36] = target: Cytochrome P450 3A4 (Homo sapiens, UniProt P08684); assay: Inhibition of CYP3A4 in human liver microsomes
Sequence of Cytochrome P450 3A4 (P08684 whole entry): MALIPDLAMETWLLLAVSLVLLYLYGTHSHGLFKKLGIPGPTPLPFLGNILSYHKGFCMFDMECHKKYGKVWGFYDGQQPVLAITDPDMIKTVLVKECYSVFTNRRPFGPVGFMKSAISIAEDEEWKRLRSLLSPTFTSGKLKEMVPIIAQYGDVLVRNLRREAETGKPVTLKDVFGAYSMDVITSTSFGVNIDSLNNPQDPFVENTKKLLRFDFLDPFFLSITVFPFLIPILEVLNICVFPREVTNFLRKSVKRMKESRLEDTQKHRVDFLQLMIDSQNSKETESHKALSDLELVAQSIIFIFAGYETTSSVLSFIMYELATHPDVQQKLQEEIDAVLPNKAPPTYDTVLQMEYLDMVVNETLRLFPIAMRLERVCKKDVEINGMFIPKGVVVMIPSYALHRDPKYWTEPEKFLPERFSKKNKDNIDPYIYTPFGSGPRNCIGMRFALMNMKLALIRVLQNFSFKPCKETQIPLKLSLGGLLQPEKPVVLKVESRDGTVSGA

[37] = target: T1, Cytochrome P450 1A2 (Homo sapiens, UniProt P05177); assay: Inhibition of CYP1A2 in human liver microsomes
T1 sequence (P05177 whole entry): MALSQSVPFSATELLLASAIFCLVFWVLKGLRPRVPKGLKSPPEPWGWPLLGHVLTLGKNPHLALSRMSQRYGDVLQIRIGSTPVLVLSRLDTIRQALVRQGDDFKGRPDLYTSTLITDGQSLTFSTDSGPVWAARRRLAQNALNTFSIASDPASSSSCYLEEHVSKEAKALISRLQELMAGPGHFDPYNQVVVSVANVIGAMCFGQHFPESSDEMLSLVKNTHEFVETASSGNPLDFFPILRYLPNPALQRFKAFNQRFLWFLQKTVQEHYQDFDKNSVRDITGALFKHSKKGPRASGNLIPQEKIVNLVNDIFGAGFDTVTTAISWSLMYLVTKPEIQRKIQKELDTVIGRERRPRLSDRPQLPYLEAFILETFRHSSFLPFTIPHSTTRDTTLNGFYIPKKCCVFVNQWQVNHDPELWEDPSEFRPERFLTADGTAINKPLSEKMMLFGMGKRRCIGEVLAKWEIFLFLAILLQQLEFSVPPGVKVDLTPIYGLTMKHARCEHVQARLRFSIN

[38] = Homo sapiens, COLO 205, 72 h, read-out: IC50

## C[C@H](CO)Nc1ncc(Cl)c(-c2cc3n(c2)C(=O)N([C@H](CO)c2cccc(Cl)c2)C3)n1
[1]; colo 205
  IC50: Not Active

## Cc1cnc(Nc2ccnn2C)nc1-c1ccc2c(c1)CN([C@H](CO)c1cccc(Cl)c1)C2=O
[1]; colo 205
  IC50: Not Active
[2]
  IC50: 4830 nM

## Cc1cnc(Nc2ccnn2C)nc1N1Cc2nn(C(CO)c3cccc(Cl)c3)c(C)c2C1 (racemic)
[1]; [38]
  IC50: 964 nM
[2]
  IC50: 99 nM

## Cc1cnc(Nc2ccnn2C)nc1-c1cc2n(c1)C(=O)N([C@H](CO)c1cccc(Cl)c1)C2
[3]
  bioavailability: 45.8%
[4]
  Cmax: 526 ng/mL
[5]
  Cmax: 9460 ng/mL
[6]
  AUC(0-t): 3270 ng·h/mL
[7]
  clearance: 12.2 mL/min/kg
[8]
  Cmax: 5150 ng/mL
[1]; [38]
  IC50: 44.6 nM
[9]
  bioavailability: 101%
[10]
  Cmax: 219 ng/mL
[11]
  Kp at 336 h: 1.42
[12]
  clearance: 10.5 mL/min/kg
[13]
  half-life: 2.1 h
[14]
  half-life: 3.2 h
[15]
  AUC(0-t): 2460 ng·h/mL
[16]
  fraction unbound: 0.016
[17]
  IC50: 99.4 nM
[18]
  IC50: 64.3 nM
[19]
  AUC(0-t): 726 ng·h/mL
[20]
  clearance: 25.3 mL/min/kg
[21]
  inhibition in vivo at 25 mg/kg: 112%
[22]
  AUC at 336 h: 21400 ng·h/mL
[23]
  bioavailability: 90.8%
[24]
  AUC at 336 h: 30300 ng·h/mL

## CC(C)Nc1cc(-c2cc3n(c2)C(=O)N([C@H](CO)c2cccc(Cl)c2)C3)c(Cl)cn1
[1]; colo 205
  IC50: Not Active
[2]
  IC50: 237 nM

## Cc1cnc(Nc2ccnn2C)nc1-c1cn2c(c1F)CN([C@H](CO)c1cccc(Cl)c1)C2=O
[1]; colo 205
  IC50: Not Active
[2]
  IC50: 130 nM

## CNC[C@H](c1cccc(Cl)c1)N1Cc2cc(-c3nc(Nc4ccnn4C)ncc3C)cn2C1=O
[1]; [38]
  IC50: 94.5 nM
[2]
  IC50: 1.5 nM

## COc1cc(F)cc([C@@H](CO)N2Cc3cc(-c4nc(Nc5ccnn5C)ncc4C)cn3C2=O)c1
[1]; [38]
  IC50: 89.6 nM
[2]
  IC50: 2.4 nM

## Cc1cnc(Nc2ccnn2C)nc1N1Cc2cn(C(CO)c3cccc(Cl)c3)nc2C1 (racemic)
[1]; [38]
  IC50: 248 nM
[2]
  IC50: 14.4 nM

## Cc1cnc(Nc2ccnn2C)nc1-c1ccc2c(c1)CCN([C@H](CO)c1cccc(Cl)c1)C2=O
[1]; [38]
  IC50: 856 nM
[2]
  IC50: 9.2 nM

## Cc1cnc(Nc2ccnn2C)nc1-c1cc2n(c1)C(=O)N([C@H](CO)c1ccc(Cl)c(F)c1)C2
[1]; [38]
  IC50: 92.2 nM
[2]
  IC50: 4.8 nM

## CC(C)Nc1cc(-c2c[nH]c(C(=O)N[C@H](CO)c3cccc(Cl)c3)c2)c(Cl)cn1 [ULIXERTINIB]
[25]
  AUC at 336 h: 48800 ng·h/mL
[26]
  Cmax: 32300 ng/mL
[27]
  AUC at 336 h: 114000 ng·h/mL
[1]; [38]
  IC50: 103 nM
[28]
  Kp at 336 h: 0.43
[29]
  Cmax: 13000 ng/mL
[30]
  inhibition in vivo at 50 mg/kg: 63%

## Cn1nccc1Nc1nccc(-c2cn3c(n2)CN([C@H](CO)c2cccc(Cl)c2)C3=O)n1
[1]; colo 205
  IC50: Not Active
[2]
  IC50: 4200 nM

## Cc1cnc(Nc2ccnn2C)nc1-c1cc2n(c1)C(=O)N([C@H](CO)c1cccc(Cl)c1)CC2
[3]
  bioavailability: 29.4%
[31]
  half-life: 0.82 h
[7]
  clearance: 63.1 mL/min/kg
[1]; [38]
  IC50: 77.1 nM
[10]
  Cmax: 84.3 ng/mL
[13]
  half-life: 1.6 h
[15]
  AUC(0-t): 277 ng·h/mL
[19]
  AUC(0-t): 258 ng·h/mL
[20]
  clearance: 38.5 mL/min/kg
[32]
  Cmax: 275 ng/mL
[23]
  bioavailability: 54%

## Cn1nccc1Nc1nccc(N2CCN(C(CO)c3cccc(Cl)c3)C(=O)C2)n1 (racemic)
[1]; [38]
  IC50: > 10000 nM
[2]
  IC50: 240 nM

## Cn1nccc1Nc1nccc(N2CC[C@H](C(=O)N[C@H](CO)c3cccc(Cl)c3)C2)n1
[1]; [38]
  IC50: > 10000 nM
[2]
  IC50: 201 nM

## Cn1nccc1Nc1ncc(Cl)c(-c2cc3n(c2)C(=O)N([C@H](CO)c2cccc(Cl)c2)C3)n1
[33]
  IC50: > 5000 nM
[34]
  IC50: > 5000 nM
[1]; [38]
  IC50: 31.9 nM
[35]
  IC50: 350 nM
[36]
  IC50: > 5000 nM
[37]
  IC50: > 5000 nM

## Cc1cnc(Nc2ccnn2C)nc1-c1cc2n(c1)C(=O)N([C@H](CN)c1cccc(Cl)c1)C2
[1]; colo 205
  IC50: Not Active
[2]
  IC50: 18.3 nM

## Cc1cnc(Nc2ccnn2C)nc1-c1cc2n(c1)C(=O)N([C@H](C)c1cccc(Cl)c1)C2
[1]; colo 205
  IC50: Not Active

## Cc1cnc(Nc2ccnn2C)nc1-c1cc2n(c1)C(=O)N([C@H](CO)c1ccc(F)c(Cl)c1)C2
[1]; [38]
  IC50: 94.9 nM
[2]
  IC50: 9.5 nM

## Cc1cnc(Nc2ccnn2C)nc1-c1cc2n(c1)C(=O)N(Cc1ccc(F)c(F)c1)C2
[1]; [38]
  IC50: 293 nM

## O=C1N([C@H](CO)c2cccc(Cl)c2)Cc2cc(-c3nc(NC4CCOCC4)ncc3Cl)cn21
[1]; [38]
  IC50: 104 nM
[2]
  IC50: 5.8 nM

## Cc1cnc(NC(C)C)nc1-c1cc2n(c1)C(=O)N([C@H](CO)c1cccc(Cl)c1)C2
[1]; colo 205
  IC50: Not Active
[2]
  IC50: 188 nM

## C[C@@H](CO)Nc1ncc(Cl)c(-c2cc3n(c2)C(=O)N([C@H](CO)c2cccc(Cl)c2)C3)n1
[1]; [38]
  IC50: 81 nM
